Experimental data taken from ChEMBL document CHEMBL5291721, “A preclinical secondary pharmacology resource illuminates target-adverse drug reaction associations of marketed drugs” (Nat Commun, 2023).

How the values were obtained:
[1] = biological target: T1, Prostaglandin G/H synthase 1 (Rattus norvegicus, UniProt Q63921); type: functional
T1 sequence (Q63921 whole entry): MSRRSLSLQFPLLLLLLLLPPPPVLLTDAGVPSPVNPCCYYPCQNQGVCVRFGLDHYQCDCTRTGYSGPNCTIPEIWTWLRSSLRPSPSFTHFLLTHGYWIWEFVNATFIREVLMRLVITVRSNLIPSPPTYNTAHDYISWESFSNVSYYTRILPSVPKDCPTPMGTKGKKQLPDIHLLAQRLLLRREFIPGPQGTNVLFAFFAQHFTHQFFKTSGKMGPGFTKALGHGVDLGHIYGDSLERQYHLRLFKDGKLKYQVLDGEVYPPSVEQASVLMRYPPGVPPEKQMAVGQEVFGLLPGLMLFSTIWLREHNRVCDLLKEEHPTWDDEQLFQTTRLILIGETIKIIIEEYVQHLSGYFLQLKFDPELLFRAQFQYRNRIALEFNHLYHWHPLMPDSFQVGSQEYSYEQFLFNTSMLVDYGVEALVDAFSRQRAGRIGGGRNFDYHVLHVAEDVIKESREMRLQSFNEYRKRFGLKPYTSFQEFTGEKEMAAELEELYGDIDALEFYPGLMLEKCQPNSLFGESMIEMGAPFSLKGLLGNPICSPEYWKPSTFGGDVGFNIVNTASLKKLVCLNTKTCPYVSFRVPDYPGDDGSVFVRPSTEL

[2] = biological target: Beta-2 adrenergic receptor (Homo sapiens, UniProt P07550); type: functional, cell-based
Sequence of Beta-2 adrenergic receptor (P07550 whole entry): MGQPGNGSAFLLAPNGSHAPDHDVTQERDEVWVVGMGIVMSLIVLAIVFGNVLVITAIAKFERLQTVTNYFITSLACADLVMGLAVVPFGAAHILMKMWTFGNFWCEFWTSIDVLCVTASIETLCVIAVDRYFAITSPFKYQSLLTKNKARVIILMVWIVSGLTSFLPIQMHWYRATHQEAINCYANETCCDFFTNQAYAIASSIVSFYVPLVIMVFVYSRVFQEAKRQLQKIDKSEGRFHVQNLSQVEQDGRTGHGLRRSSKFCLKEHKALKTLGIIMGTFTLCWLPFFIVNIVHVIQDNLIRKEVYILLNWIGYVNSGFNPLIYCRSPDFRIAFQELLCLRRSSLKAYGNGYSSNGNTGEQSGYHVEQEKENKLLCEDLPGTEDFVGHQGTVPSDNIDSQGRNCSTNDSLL

[3] = biological target: T2, Alpha-2C adrenergic receptor (Homo sapiens, UniProt P18825); type: functional
T2 sequence (P18825 whole entry): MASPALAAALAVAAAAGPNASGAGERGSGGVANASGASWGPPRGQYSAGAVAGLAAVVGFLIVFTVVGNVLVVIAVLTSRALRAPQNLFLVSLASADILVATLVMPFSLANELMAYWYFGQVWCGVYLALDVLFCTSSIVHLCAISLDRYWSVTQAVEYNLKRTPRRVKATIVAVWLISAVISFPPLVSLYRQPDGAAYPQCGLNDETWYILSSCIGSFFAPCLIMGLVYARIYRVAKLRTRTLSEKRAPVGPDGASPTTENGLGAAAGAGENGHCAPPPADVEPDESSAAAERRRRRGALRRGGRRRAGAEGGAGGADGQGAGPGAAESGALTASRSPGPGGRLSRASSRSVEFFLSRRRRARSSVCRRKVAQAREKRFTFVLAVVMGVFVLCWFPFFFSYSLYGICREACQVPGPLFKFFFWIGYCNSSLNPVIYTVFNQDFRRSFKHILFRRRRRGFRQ

[4] = biological target: Voltage-gated inwardly rectifying potassium channel KCNH2 (Homo sapiens, UniProt Q12809); type: functional; conditions: read-out: AC50
Sequence of Voltage-gated inwardly rectifying potassium channel KCNH2 (Q12809 whole entry): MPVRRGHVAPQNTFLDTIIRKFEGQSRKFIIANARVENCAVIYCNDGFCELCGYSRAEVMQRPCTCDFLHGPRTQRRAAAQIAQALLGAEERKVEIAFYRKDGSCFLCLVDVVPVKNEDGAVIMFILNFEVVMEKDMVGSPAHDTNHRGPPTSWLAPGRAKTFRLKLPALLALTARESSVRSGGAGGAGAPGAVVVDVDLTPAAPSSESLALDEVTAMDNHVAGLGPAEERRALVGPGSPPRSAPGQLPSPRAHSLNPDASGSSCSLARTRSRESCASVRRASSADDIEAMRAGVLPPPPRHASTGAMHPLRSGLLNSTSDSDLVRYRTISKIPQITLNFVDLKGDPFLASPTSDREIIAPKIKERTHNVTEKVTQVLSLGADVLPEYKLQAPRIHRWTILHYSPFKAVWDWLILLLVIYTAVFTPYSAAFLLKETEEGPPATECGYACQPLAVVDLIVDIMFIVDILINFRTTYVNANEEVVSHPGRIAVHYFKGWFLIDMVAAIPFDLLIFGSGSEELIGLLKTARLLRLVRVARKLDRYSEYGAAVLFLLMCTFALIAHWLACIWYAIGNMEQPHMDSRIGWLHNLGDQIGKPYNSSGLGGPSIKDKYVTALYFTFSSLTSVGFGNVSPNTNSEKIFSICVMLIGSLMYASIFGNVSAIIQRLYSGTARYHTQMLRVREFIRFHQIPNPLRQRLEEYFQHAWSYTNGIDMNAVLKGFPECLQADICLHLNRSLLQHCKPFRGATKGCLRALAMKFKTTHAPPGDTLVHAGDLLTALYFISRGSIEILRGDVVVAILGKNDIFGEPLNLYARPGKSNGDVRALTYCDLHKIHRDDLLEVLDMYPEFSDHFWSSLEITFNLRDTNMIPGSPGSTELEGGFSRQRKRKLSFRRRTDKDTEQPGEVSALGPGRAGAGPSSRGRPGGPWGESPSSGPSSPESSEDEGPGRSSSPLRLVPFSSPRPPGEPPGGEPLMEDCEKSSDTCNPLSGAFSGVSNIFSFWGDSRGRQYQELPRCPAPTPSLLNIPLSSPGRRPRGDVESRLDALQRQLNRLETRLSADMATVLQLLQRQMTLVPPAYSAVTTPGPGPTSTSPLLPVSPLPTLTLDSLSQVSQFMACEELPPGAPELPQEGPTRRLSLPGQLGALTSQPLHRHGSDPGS

Adenosine receptor A2a = Adenosine receptor A2a (Homo sapiens, UniProt P29274)
Sequence of Adenosine receptor A2a (P29274 whole entry): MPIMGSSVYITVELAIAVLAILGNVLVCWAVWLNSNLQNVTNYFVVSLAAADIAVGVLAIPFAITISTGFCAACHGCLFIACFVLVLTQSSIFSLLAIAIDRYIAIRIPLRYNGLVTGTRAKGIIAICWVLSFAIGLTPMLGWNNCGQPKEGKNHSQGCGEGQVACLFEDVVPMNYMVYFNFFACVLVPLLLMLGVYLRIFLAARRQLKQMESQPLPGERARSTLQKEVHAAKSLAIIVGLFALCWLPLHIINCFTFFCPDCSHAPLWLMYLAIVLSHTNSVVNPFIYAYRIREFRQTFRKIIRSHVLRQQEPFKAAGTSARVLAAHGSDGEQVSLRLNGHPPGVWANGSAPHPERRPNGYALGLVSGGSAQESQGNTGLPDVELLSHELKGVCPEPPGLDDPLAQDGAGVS

Vasopressin V1a receptor = Vasopressin V1a receptor (Homo sapiens, UniProt P37288)
Sequence of Vasopressin V1a receptor (P37288 whole entry): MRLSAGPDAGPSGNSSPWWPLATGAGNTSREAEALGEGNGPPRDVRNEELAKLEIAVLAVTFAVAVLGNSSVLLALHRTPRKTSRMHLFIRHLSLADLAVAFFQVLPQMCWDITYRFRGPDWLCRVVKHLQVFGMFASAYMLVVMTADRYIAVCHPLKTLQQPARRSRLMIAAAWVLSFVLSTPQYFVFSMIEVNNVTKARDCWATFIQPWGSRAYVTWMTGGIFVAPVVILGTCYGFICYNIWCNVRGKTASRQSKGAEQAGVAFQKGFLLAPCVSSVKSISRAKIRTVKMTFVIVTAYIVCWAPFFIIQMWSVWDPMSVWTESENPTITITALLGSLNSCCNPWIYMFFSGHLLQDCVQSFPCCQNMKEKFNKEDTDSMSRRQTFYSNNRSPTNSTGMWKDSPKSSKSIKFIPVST

[5] = biological target: Gamma-aminobutyric acid receptor subunit alpha-1 (Rattus norvegicus, UniProt P62813)
Sequence of Gamma-aminobutyric acid receptor subunit alpha-1 (P62813 whole entry): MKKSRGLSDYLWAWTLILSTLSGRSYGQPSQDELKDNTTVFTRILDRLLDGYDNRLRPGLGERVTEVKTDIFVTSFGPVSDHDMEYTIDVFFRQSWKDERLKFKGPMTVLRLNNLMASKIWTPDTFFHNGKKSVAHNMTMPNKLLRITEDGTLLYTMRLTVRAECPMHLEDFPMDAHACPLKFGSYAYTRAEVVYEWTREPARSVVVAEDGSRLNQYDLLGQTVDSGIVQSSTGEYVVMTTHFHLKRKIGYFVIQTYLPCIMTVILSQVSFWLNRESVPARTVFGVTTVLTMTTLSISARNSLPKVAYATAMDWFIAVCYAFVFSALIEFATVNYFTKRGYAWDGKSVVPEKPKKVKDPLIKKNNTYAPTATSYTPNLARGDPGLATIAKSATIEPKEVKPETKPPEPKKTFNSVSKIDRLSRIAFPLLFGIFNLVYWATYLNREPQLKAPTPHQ

[6] = biological target: Glutamate receptor ionotropic, NMDA 1 (Rattus norvegicus, UniProt P35439)
[7] = biological target: T3, Neuropeptide Y receptor type 1 (Homo sapiens, UniProt P25929)
T3 sequence (P25929 whole entry): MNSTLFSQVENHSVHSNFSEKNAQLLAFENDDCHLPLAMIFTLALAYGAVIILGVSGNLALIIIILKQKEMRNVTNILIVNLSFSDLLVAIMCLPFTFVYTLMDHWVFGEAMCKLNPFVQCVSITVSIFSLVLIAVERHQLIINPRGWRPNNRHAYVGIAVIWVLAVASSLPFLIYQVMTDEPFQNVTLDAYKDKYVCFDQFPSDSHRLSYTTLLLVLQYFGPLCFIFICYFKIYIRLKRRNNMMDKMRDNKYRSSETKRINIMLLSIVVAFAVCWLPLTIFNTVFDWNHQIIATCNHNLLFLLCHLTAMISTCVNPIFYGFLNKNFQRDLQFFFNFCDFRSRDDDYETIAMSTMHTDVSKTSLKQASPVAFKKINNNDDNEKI
Note: assay procedure not described here.

Row | Structure (SMILES) | AC50 [5] [µM] | AC50 [6] [µM] | AC50 [7] [µM] | AC50 [1] [µM] | AC50 [2] [µM] | AC50 [3] [µM] | AC50 [4] [µM] | AC50 (Adenosine receptor A2a) [µM] | AC50 (Vasopressin V1a receptor) [µM]
1 | CC(=N)N1CC[C@H](SC2=C(C(=O)O)N3C(=O)[C@H]([C@@H](C)O)[C@H]3C2)C1 | – | – | – | 5.1 | > 300 | > 300 | 15 | 300 | > 300
2 | C=C(C)[C@@H]1CCC(C)=C[C@H]1c1c(O)cc(CCCCC)cc1O [CANNABIDIOL] | – | – | – | 0.771 | > 30 | > 30 | – | > 30 | > 30
3 | [H]/N=C(\N/C(=N/[H])NCCCCCCNC(=N)NC(=N)Nc1ccc(Cl)cc1)Nc1ccc(Cl)cc1 [CHLORHEXIDINE] | > 10 | > 10 | 2.2 | > 10 | > 30 | 1.8 | 16.3 | > 30 | 14.7
4 | Nc1nc(O)c2ncn(COC(CO)CO)c2n1 [GANCICLOVIR] | > 30 | > 30 | > 30 | > 30 | > 30 | > 30 | > 30 | > 30 | –
5 | C[C@H]1Oc2cc(cnc2N)-c2c(nn(C)c2C#N)CN(C)C(=O)c2ccc(F)cc21 [LORLATINIB] | – | – | – | > 30 | > 30 | > 30 | > 30 | > 30 | > 30
6 | O=C1NC(=O)C(c2ccccc2)(c2ccccc2)N1 [PHENYTOIN] | > 10 | > 10 | > 30 | > 30 | > 30 | > 30 | – | > 30 | > 30
7 | CCOc1cc(CC(=O)N[C@@H](CC(C)C)c2ccccc2N2CCCCC2)ccc1C(=O)O [REPAGLINIDE] | – | – | – | > 30 | > 30 | > 30 | > 30 | > 30 | > 30
8 | CCCN(CCC)CCc1cccc2c1CC(=O)N2 [ROPINIROLE] | > 10 | > 10 | > 30 | > 30 | > 30 | > 30 | – | > 30 | > 30
9 | CCCN(CCc1cccs1)[C@H]1CCc2c(O)cccc2C1 [ROTIGOTINE] | – | – | – | > 30 | > 30 | 0.4 | 3.8 | > 30 | > 30
10 | CC[C@H]1OC(=O)[C@H](C)[C@@H](O[C@H]2C[C@@](C)(OC)[C@@H](O)[C@H](C)O2)[C@H](C)[C@@H](O[C@@H]2O[C@H](C)C[C@H](N(C)C)[C@H]2O)[C@](C)(O)C[C@@H](C)/C(=N\OCOCCOC)[C@H](C)[C@@H](O)[C@]1(C)O [ROXITHROMYCIN] | – | – | – | > 30 | > 30 | > 30 | > 30 | > 30 | –

Continued, in another order:

Row | AC50 [5] [µM] | AC50 [6] [µM] | AC50 [7] [µM] | Structure (SMILES) | AC50 [1] [µM] | AC50 [2] [µM] | AC50 [3] [µM] | AC50 [4] [µM] | AC50 (Adenosine receptor A2a) [µM] | AC50 (Vasopressin V1a receptor) [µM]
11 | > 30 | > 30 | > 30 | CC(/C=C1\SC(=S)N(CC(=O)O)C1=O)=C\c1ccccc1 | > 30 | > 30 | 8.2 | > 30 | 26 | 28
12 | > 10 | > 10 | > 30 | O=C1CN2Cc3c(ccc(Cl)c3Cl)N=C2N1 [ANAGRELIDE] | > 30 | > 30 | > 10 | > 30 | > 30 | > 30
13 | > 10 | > 10 | – | CCc1oc2ccccc2c1C(=O)c1cc(Br)c(O)c(Br)c1 [BENZBROMARONE] | > 30 | > 30 | 26 | > 30 | > 30 | > 30
14 | – | > 30 | > 30 | CO/N=C(\C(=O)N[C@@H]1C(=O)N2C(C(=O)O)=C(COC(N)=O)CS[C@H]12)c1ccco1 [CEFUROXIME] | > 30 | > 30 | > 30 | > 30 | > 30 | > 30
